Measured values reported in publication PMC5107945, “Abscinazole-E3M, a practical inhibitor of abscisic acid 8′-hydroxylase for improving drought tolerance” (Scientific Reports, 2016).

What was measured:
[1] = biological target: T1, Rice recombinant CYP701A6 (ent-kaurene oxidase) (Oryza sativa subsp. japonica, UniProt Q5Z5R4); assay: CYP701A6 inhibition assay (formation of end product KA); format: biochemical; conditions: Rice recombinant CYP701A6 expressed in insect cells; 10 μM ent-kaurene; formation of KA; read-out: CYP701A IC50
T1 construct: made in house; host or cells: insect cells (baculovirus vector)
T1 sequence (Q5Z5R4 1-505): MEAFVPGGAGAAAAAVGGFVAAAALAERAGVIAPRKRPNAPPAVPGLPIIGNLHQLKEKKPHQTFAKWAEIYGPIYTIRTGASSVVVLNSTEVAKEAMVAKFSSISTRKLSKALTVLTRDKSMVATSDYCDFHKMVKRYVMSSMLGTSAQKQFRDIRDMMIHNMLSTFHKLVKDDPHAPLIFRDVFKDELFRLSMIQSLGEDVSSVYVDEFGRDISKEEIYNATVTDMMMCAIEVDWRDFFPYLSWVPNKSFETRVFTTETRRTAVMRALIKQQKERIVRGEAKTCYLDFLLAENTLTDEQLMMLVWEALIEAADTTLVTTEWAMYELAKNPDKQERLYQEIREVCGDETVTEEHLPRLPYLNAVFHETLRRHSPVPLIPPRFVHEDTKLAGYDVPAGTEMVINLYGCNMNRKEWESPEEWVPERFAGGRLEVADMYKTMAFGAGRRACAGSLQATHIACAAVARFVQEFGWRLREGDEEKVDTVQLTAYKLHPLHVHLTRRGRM
Protocol: To evaluate the enzymatic selectivity between CYP707A and CYP701A, we examined the inhibitory activity against recombinant rice containing CYP701A6 expressed in insect cells using a baculovirus vector. This enzyme catalyses all three steps to KA via the corresponding alcohol and aldehyde, and consequently, the kinetic analysis is very complicated. Therefore, we evaluate the IC50 value for the formation of the end product, KA, instead of the KI value.
Reaction mixtures, containing 0.058 μM of […] microsomes, ATR2 (0.115 U), ent-kaurene (final concentration of 10 μM), inhibitors (0 for control, 1.5–1,500 μM in 8 μL dimethylformamide), and 20 mM NADPH in 500 mM potassium phosphate buffer (pH 7.4), were incubated at 30 °C for 10 min. Reactions were initiated by adding NADPH and stopped by the addition of 100 μL of 1 M HCl. Abietic acid, as the internal standard, was then added to the reaction product, which was extracted with EtOAc (400 μL × 3). The organic phase was dried over Na2SO4 and concentrated in vacuo. To derivatize the reaction products, MeOH (50 μL) and trimethylsilyldiazomethane (2 M in 5 μL hexane) were added, and the reaction mixture was incubated at room temperature for 10 min. The organic solvent was removed under N2, and samples were adjusted to 150 μL with hexane before a gas chromatography-mass spectrometry analysis (QP2010-plus; Shimadzu Corp., Kyoto, Japan). The conditions were as follows: the column was DB-5ms (0.25 mm id × 15 m, 0.25 μm film thickness; Agilent J & W, Folsom, CA, USA), the carrier gas was He, the flow rate was 1.65 mL min^−1, the injection port temperature was 280 °C, splitless injection, and the programmed column temperature was a step gradient of 80 °C for 1 min, 80–200 °C at 18 °C min^−1, 200–210 °C at 2 °C min^−1, 210–280 °C at 30 °C min^−1, and then 280 °C for 3 min. The KA content was calculated from the area ratio of molecular and fragment ions of methyl KA (m/z 316, 273, and 257) to those of methyl abietate (m/z 316 and 256). The inhibition ratio was defined as [(A − B)/A] × 100, where A = the amount of methyl KA/methyl abietate when the inhibitor was absent from the reaction mixture (control), and B = the amount of methyl KA/methyl abietate when the inhibitor was present. All of the tests were conducted at least three times.

[2] = system: Arabidopsis stomata / leaf surface temperature; assay: Thermal imaging and stomatal aperture in Arabidopsis; format: in vivo
Protocol: The effects of (-)-Abz-[…] were also determined relative to stomatal apertures. Arabidopsis grown in soil pots underwent moderate drought stress under the optimal growth conditions of 22 °C and 60% relative humidity. Under these growth conditions, the leaf surface temperature of the mock-treated controls was 19.5 °C, which was lower than the surrounding atmospheric temperature because of transpirational water loss (Fig. 6a,b)[30]. […] Finally, we examined the effects of (-)-Abz-[…] on drought tolerance under more practical conditions. Three-week-old Arabidopsis were sprayed with an aqueous solution containing 50 μM (-)-Abz-[…]. Water was not supplied for 12 days, and then the plants were rehydrated. […] We also tested the effects of (-)-Abz-[…] on a monocot crop, maize, to evaluate whether (-)-Abz-[…] affected stomatal movement and enhanced ABA response across plant species. […] Thus, the effects of (-)-Abz-[…] were not restricted to the model plant Arabidopsis. Figure 6 Effects of (-)-Abz-[…] on Arabidopsis drought tolerance. (a,b) Three-week-old plants were treated with 50 μM of (-)-Abz-[…] and incubated overnight at 22 °C with 60% relative humidity. Thermal images of plants were obtained using a thermal imaging camera ([…], Nippon Avionics Co., Ltd.), and the average temperatures on leaf surfaces were determined with NS9200 software (n = 5, error bars represent s.d.). Representative images are shown in (a). (c) Stomatal apertures after the application of 50 μM (-)-Abz-[…]. After an overnight incubation, plants were placed at 22 °C with ~90% relative humidity for 1 h. Stomatal images were obtained using Suzuki's universal micro-printing method. […] (d) Effects of (-)-Abz-[…] on endogenous ABA levels. Four-week old plants grown in soil pots were treated with 50 μM (-)-Abz-[…], and leaves were harvested after an overnight incubation. Values are means with s.d. (n = 6). (e) Four-week-old plants were subjected to drought stress by withholding water. […]

With abscinazole-E3M [(−)-6] the IC50 [1] was 780 nM, the Transpirational water loss ([2]; 50 μM spray, overnight) was “reduced the water loss” and the Leaf surface temperature ([2]; 50 μM spray, overnight, 22 °C, 60% relative humidity) was “increased leaf temperatures”. For the same substance, the Stomatal aperture ([2]; 50 μM, overnight then ~90% relative humidity 1 h) was “led to stomatal closure”.
